In PMC5590075, “Synthesis, Antimicrobial, and Antioxidant Activities of Chalcogen-Containing Nitrone Derivatives from (R)-citronellal” (Medicines, 2017):
Values after ≈ are worked out from the molar mass of the structure shown.

Columns and labels:
Type in all cases: cell-based
[1] = test system: Salmonella Typhimurium ATCC 14028; test: MIC and MBC, macro dilution tube method; conditions: S. Typhimurium; for MBC: 10^5 CFU.mL^−1; for MIC: 10^5 CFU.mL^−1, 24 h
Text: (§1) To evaluate the antimicrobial potential of the synthesized compounds, the following reference strains of bacteria, that are economically important in foods, were employed: Gram-positive Listeria monocytogenes ATCC 7644, Staphylococcus aureus ATCC 25923, and Bacillus cereus ATCC 11778; Gram-negative Salmonella Typhimurium ATCC 14028, Escherichia coli O157: H7 NCTC 12900 and the clinically important Pseudomonas aeruginosa ATCC 15442.
(§2) The antimicrobial activity assay using the disk diffusion test was realized using the methodology that is recommended by the Clinical Laboratory Standards Institute (CLSI). The determination of the minimum inhibitory concentration (MIC) and minimum bactericidal concentration (MBC) was performed using the macro dilution tube method, in accordance with Rota et al., with modifications. Details of these assays are provided in the Supplemental Material. […]
(§3) 2.2. Determination of the minimum inhibitory concentration (MIC) and minimum bactericidal concentration
(§4) The MIC was determined using the macro dilution tube method, in accordance with Rota et al.
(§5) [5], with modifications. The tested concentrations were 20, 18, 15, 12, 10, 7 and 5 μL.mL‐1 of each compound. In a tube with 1 mL of MH broth, was inoculated 105 UFC.mL‐1, the compound in a predetermined concentration and, to facilitate the solubility, 2 drops of TWEEN 80. The mixture was incubated at 37 °C for 24 h under stirring (150 rpm). As the positive control, MH broth and inoculum concentration in 105 UFC.mL‐1 and as the negative control MH, the inoculum concentration in 105 UFC∙mL‐1 and streptomycin (10 μg) were used. MIC was defined as the lowest concentration of […]
(§6) After 24 h, tubes with no visible growth were seeded in a […] TSA‐YE tube and incubated at 37 °C for 24 h. The MBC is the lowest concentration of compound where 99.9% of the initially inoculated cells were killed. […]
(§7) 2.4. Radical Scavenging Activity […]
(§8) The ABTS radical scavenging activity was determined according to the method described by Erel. Different concentrations of compounds 5a–d and 10 (10–500 μ M) were mixed with the ABTS+ solution, and the decrease in the absorbance at 734 nm was recorded.

[2] = test system: Pseudomonas aeruginosa ATCC 15442; test: MIC and MBC, macro dilution tube method; conditions: P. aeruginosa; for MBC: 10^5 CFU.mL^−1
Text: as §1, §2, §3, §4, §5, §6, §7, §8

[3] = test system: all the tested bacteria; test: MIC and MBC, macro dilution tube method, summary over the panel; conditions: read-out: MIC and MBC values
Text: as §1, §2, §3, §4
[5], with modifications. […]
as §8

SMILES	MBC [1] [mM.mL^−1]	MIC [1] [mM.mL^−1]	MBC [2] [mM.mL^−1]	MBC [3] [µM]	MIC ([2]; 10^5 CFU.mL^−1, 24 h) [mM.mL^−1]
CC(C)=CCCC(C)(C/C=[N+](\C)[O-])Sc1ccccc1 (stereo not drawn) [5c, (E)-N,3,7-trimethyl-3-(phenylthio)oct-6-en-1-imine oxide]	>0.69	>0.69	0.61	520 to 690 (≈ 152 to 201 µg/mL)	–
CC(C)=CCCC(C)C/C=[N+](\C)[O-] (stereo not drawn) [5d, (E)-N,3,7-trimethyloct-6-en-1-imine oxide]	–	–	–	1130 to 1260 (≈ 207 to 231 µg/mL)	–
CC(C)=CCC[C@@H](C)C(/C=N/O)[Se]c1ccccc1 (stereo partly drawn) [compound 10, (3R,E)-3,7-dimethyl-2-(phenylselanyl)oct-6-enal oxime]	>0.70	>0.70	>0.70	–	>0.70
